Source: PubChem BioAssay (NCI)
Where “and” joins values, the source holds several entries; their conditions need not be identical. Equal values may be shown once.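 Grown in 96-well plates, cells were treated for 48 hours with each compound at five concentrations. Insufficient inhibition: endpoint recorded as highest concentration tested. Abbreviation: GI50, concentration required for 50% inhibition of growth. TGI: concentration producing complete growth inhibition.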

Assays:
Test in all cases: DTP human tumour cell line panel, 48 h
NCI-H522 lung = system: NCI-H522 lung
TK-10 renal = system: TK-10 renal
SNB-19 CNS = system: SNB-19 CNS
MALME-3M melanoma = system: MALME-3M melanoma
EKVX NSCLC = system: EKVX NSCLC
SK-OV-3 ovarian = system: SK-OV-3 ovarian
CAKI-1 renal = system: CAKI-1 renal
HOP-62 NSCLC = system: HOP-62 NSCLC
UACC-62 melanoma = system: UACC-62 melanoma
SR leukemia = system: SR leukemia

| SMILES | TGI (NCI-H522 lung) [µM] | TGI (TK-10 renal) [µM] | TGI (SNB-19 CNS) [µM] | TGI (MALME-3M melanoma) [µM] | TGI (EKVX NSCLC) | TGI (SK-OV-3 ovarian) [µM] | TGI (CAKI-1 renal) | TGI (HOP-62 NSCLC) | TGI (UACC-62 melanoma) | TGI (SR leukemia) | GI50 (NCI-H522 lung) [µM] | GI50 (TK-10 renal) [µM] | GI50 (SNB-19 CNS) [µM] | GI50 (MALME-3M melanoma) [µM] | GI50 (EKVX NSCLC) [µM] | GI50 (SK-OV-3 ovarian) [µM] | GI50 (CAKI-1 renal) [µM] | GI50 (HOP-62 NSCLC) [µM] | GI50 (UACC-62 melanoma) [µM] | GI50 (SR leukemia) [µM] |
| --- | --- | --- | --- | --- | --- | --- | --- | --- | --- | --- | --- | --- | --- | --- | --- | --- | --- | --- | --- | --- |
| O=C(O)c1[nH]c(C(=O)O)c(CC(F)(F)C(F)(F)C(F)(F)F)c1CC(F)(F)C(F)(F)C(F)(F)F | > 100 | > 100 | > 100 | > 100 | > 100 µM | > 100 | > 100 µM | > 100 µM | > 100 µM | – | – | – | – | – | – | – | – | – | – | – |
| CC1(C)OC2C(=O)OC(COCc3ccccc3)C2O1 (centres undefined) | – | > 100 | – | > 100 | > 100 µM | – | > 100 µM | > 100 µM | > 100 µM | > 100 µM | – | – | – | – | – | – | – | – | – | – |
| c1cncc(C2c3[nH]c4ccccc4c3CCN2CCN2CCCCC2)c1 (centres undefined) | > 100 | > 100 | > 100 | – | > 100 µM | > 100 | > 100 µM | > 100 µM | > 100 µM | > 100 µM | – | – | – | – | – | – | – | – | – | – |
| Cc1ccc(S(=O)(=O)ON/N=C2/C3OC3[C@@H]3CCCC[C@H]23)cc1 (some centres undefined) | > 100 | > 100 | > 100 | > 100 | > 100 µM | – | > 100 µM | > 100 µM | > 100 µM | > 100 µM | – | – | – | – | – | – | – | – | – | – |
| CCN(CC)CC(C)Nc1ccc(C)c2sc3ccccc3c(=O)c12 (centres undefined) | 28.7 | 17.6 | 19.5 | 8.29 | 24.2 µM | 12.3 | 14.1 µM | 8.67 µM | 3.98 µM | – | 10.9 | 4.83 | 6.44 | 2.45 | 7.86 | 2.85 | 3.04 | 2.63 | 1.82 | – |
| C=CCN(N=O)C(=O)N(CCC)CCCC(NC(C)=O)C(=O)NCc1ccccc1 (centres undefined) | > 100 | > 100 | > 100 | > 100 | > 100 µM | > 100 | > 100 µM | > 100 µM | > 100 µM | – | – | – | – | – | – | – | – | – | – | – |
| CCCN(CCCCC(NC(C)=O)C(=O)NCc1ccccc1)C(=O)NC (centres undefined) | > 100 | > 100 | > 100 | > 100 | > 100 µM | > 100 | > 100 µM | > 100 µM | > 100 µM | – | – | – | – | – | – | – | – | – | – | – |
| CCc1cccc(C)c1NC(=O)CC1Sc2ccccc2NC1=O (centres undefined) | 61.5 | > 100 | > 100 | > 100 | > 100 µM | > 100 | > 100 µM | 61.3 µM | > 100 µM | – | – | – | – | – | – | – | – | – | – | – |
| O=C1OCC2=Nc3cccc4cccc(c34)N12 | > 100 | > 100 | > 100 | – | > 100 µM | > 100 | > 100 µM | > 100 µM | > 100 µM | > 100 µM | – | – | – | – | – | – | – | – | – | – |
| O=[N+]([O-])/C=C\c1ccc2c(c1)OCO2 | – | 10 | 30.8 | 32.9 | 34.9 µM | 24.4 | 7.36 µM | 27 µM | 31.8 µM | 8.06 µM | – | 3.16 | 13.1 | 14.6 | 14.4 | 12.1 | 1.69 | 13.3 | 15.3 | 2.73 |
| CCCCCCCCCCCCC(SCCNC(=O)CCNC(=O)C(O)C(C)(C)COP(=O)(O)OP(=O)(O)OCC1OC(n2cnc3c(N)ncnc32)C(O)C1OP(=O)(O)O)C(=O)NCC(N)=O (centres undefined) | > 100 | > 100 | > 100 | > 100 | > 100 µM | 98.2 | – | > 100 µM | > 100 µM | – | – | – | – | – | – | – | – | – | – | – |
| c1cc2c(cnc3cscc32)s1 | > 100 | > 100 | > 100 | > 100 | – | – | > 100 µM | > 100 µM | – | > 100 µM | – | – | – | – | – | – | – | – | – | – |
| COC1C(=O)CCC2(CO2)C1(O)C1(C)OC1CCC(C)C (centres undefined) | > 100 | – | > 100 | > 100 | > 100 µM | > 100 | > 100 µM | > 100 µM | > 100 µM | > 100 µM | – | – | – | – | – | – | – | – | – | – |
| CN(C)CCNC(=O)c1cc([N+](=O)[O-])cc2ccc(-c3ccccc3)nc12 | 17.2 | 95.5 | 35.5 | 19.5 | > 71.4 µM | 25.5 | > 40.4 µM | 38.1 µM | 15.7 µM | – | – | – | – | – | – | – | – | – | – | – |
| CC(C)(C)N=CN1CCC(C(c2ccccc2)c2ccccc2)CC1 | – | > 100 | > 100 | 35.6 | > 100 µM | – | > 100 µM | > 100 µM | > 100 µM | – | – | – | – | – | – | – | – | – | – | – |
| ClCCn1cnc2c(SCc3ccccc3)ncnc21 | – | > 100 | > 100 | > 100 | > 100 µM | > 100 | > 100 µM | > 100 µM | > 100 µM | – | – | 0.924 | 2.61 | 25.7 | 18.3 | 8.3 | 8.86 | 1.44 | 6.65 | – |
| Cc1c2ncccc2c(C)c2c1[nH]c1ccccc12 | 26.7 | 31.7 | 26.7 | 30.6 | 30.7 µM | 31.3 | 22 µM | 24.1 µM | 29.2 µM | – | – | – | – | – | – | – | – | – | – | – |
| O=C(N=Nc1c(O)[nH]c2ccccc12)c1ccccc1O | > 100 | > 100 | > 100 | > 100 | > 100 µM | 46.6 | – | > 100 µM | > 100 µM | – | – | – | – | – | – | – | – | – | – | – |
| O=C1/C(=C\c2cccs2)Oc2ccccc21 | > 100 | > 100 | > 100 | – | > 100 µM | > 100 | > 100 µM | > 100 µM | > 100 µM | > 100 µM | – | – | – | – | – | – | – | – | – | – |
| CC(O)C(NC(=O)C(CS)NC(=O)C(CO)NC(=O)C(CCCCN)NC(=O)C(Cc1c[nH]c2ccccc12)NC(=O)C(Cc1ccc(O)cc1)NC(=O)C(CS)NC(=O)C(N)Cc1ccccc1)C(N)=O (centres undefined) | > 25 | – | 63.4 | > 25 | > 25 µM and 83.9 µM | > 25 | > 25 µM and 29.6 µM | > 25 µM and 63.4 µM | > 25 µM and 57.8 µM | > 25 µM and 86.5 µM | – | – | – | – | 36.1 | – | 1.08 | – | – | 29.7 |
| c1c[nH]c(Cc2ncc(Cc3cnc[nH]3)[nH]2)n1 | > 100 | > 100 | 84.4 | > 100 | > 100 µM | 86.2 | > 100 µM | 98.6 µM | 59.5 µM | – | – | – | – | – | – | – | – | – | – | – |
